Experimental data: patent publication US20240325398A1, “COMBINATION THERAPIES” (Infinity Pharmaceuticals, Inc., priority 2014, published 2024)

Columns and labels:
[1] = system: CDK1, CDK2, CDK4, CDK7 and CDK9; settings: in words; cited from earlier work
OCI-Ly7 = test: Combination study, ATPLite 72 h, dose matrix (Synergy Score, CI50); settings: combination with Compound 1, 72 h
Protocol: (§1) Cells are thawed from a liquid nitrogen preserved state. Once cells have been expanded and divide at their expected doubling times, screening begins. Cells are seeded in growth media in either black 1536-well or 384-well tissue culture treated plates. Cells are then equilibrated in assay plates via centrifugation and placed in incubators attached to the Dosing Modules at 37° C. for 24 hours before treatment. […] These Tzero (To) plates are read using ultra-sensitive luminescence on Envision plate readers (Perkin Elmer). Treated assay plates are incubated with compound for 72 hours. After 72 hours, plates are developed for endpoint analysis using ATPLite. All data points are collected via automated processes, quality controlled and analyzed using Zalicus software.
(§2) The measure of effect in the experiment can be the inhibition of cellular response relative to the untreated level (vehicle alone). […] The inhibition ranges from 0% at the untreated level to 100% when T=0. Inhibition levels are negative for agents that actually increase levels.
(§3) Growth Inhibition (GI) is used as a measure of cell viability. […] A GI reading of 100% represents complete growth inhibition—T72 compound-treated and T0 vehicle signals are matched. […] A GI reading of 200% represents complete death of all cells in the culture well. Compounds reaching an activity plateau of GI 200% are considered cytotoxic. GI is calculated by applying the following test and equation:
(§4) Combination analysis data were collected in a 6×6 dose matrix. Synergy is calculated by comparing a combination's response to those of its single compound, against the drug-with-itself dose-additive reference model. Deviations from dose additivity may be assessed visually on an isobologram or numerically with a Combination Index (CI). […] Additive effect is CI=1.0. […] Antagonistic effect is CI>1.0.
(§5) To measure combination effects in excess of Loewe additivity, a scalar measure to characterize the strength of synergistic interaction termed the Synergy Score is devised. The Synergy Score is calculated as:
(§6) The fractional inhibition for each component agent and combination point in the matrix is calculated relative to the median of all vehicle-treated control wells. The Synergy Score equation integrates the experimentally-observed activity volume at each point in the matrix in excess of a model surface numerically derived from the activity of the component agents using the Loewe model for additivity. Additional terms in the Synergy Score equation (above) are used to normalize for various dilution factors used for individual agents and to allow for comparison of synergy scores across an entire experiment. The inclusion of positive inhibition gating or an Idata multiplier removes noise near the zero effect level, and biases results for synergistic interactions at that occur at high activity levels.
(§7) Loewe Volume (Loewe Vol) is used to assess the overall magnitude of the combination interaction in excess of the Loewe additivity model. Loewe Volume is particularly useful when distinguishing synergistic increases in a phenotypic activity (positive Loewe Volume) versus synergistic antagonisms (negative Loewe Volume). […] This model defines additivity as a non-synergistic combination interaction where the combination dose matrix surface should be indistinguishable from either drug crossed with itself. The calculation for Loewe additivity is:

TMD8 = test: as above; settings: combination with Compound 1
RPMI-8226 = test: as above; settings: combination with Compound 1
U-2932 = test: as above; settings: combination with Compound 1, 72 h
WSU-NHL = test: as above; settings: combination with Compound 1, 72 h
DOHH-2 = test: as above; settings: combination with Compound 1, 72 h
Jeko-1 = test: as above; settings: combination with Compound 1
Protocol: as §1
(§8) where T is treated cell count and V is untreated (vehicle) cell count (at 72 hours). I ranges from 0% (when T=V) to 100% (when T=0). […] The measure of effect in the experiment can be the inhibition of cellular response relative to the untreated level (vehicle alone). […] The inhibition ranges from 0% at the untreated level to 100% when T=0. Inhibition levels are negative for agents that actually increase levels. Other effect measures, such as an activity ratio r=T/V may be more appropriate for some assays. When activity ratios (e.g, fold increase over stimulated control) are being used, the effect can be measured using an induction 1=ln(T/V). With this definition, all effect expressions are the same as for inhibition.
as §3, §4, §5, §6
(§9) Loewe Volume (Loewe Vol) is used to assess the overall magnitude of the combination interaction in excess of the Loewe additivity model. Loewe Volume is particularly useful when distinguishing synergistic increases in a phenotypic activity (positive Loewe Volume) versus synergistic antagonisms (negative Loewe Volume). […] This model defines additivity as a non-synergistic combination interaction where the combination dose matrix surface should be indistinguishable from either drug crossed with itself.

GRANTA-519 = test: as above; settings: combination with Compound 1
KARPAS-422 = test: as above; settings: combination with Compound 1, 72 h
Farage = test: as above; settings: combination with Compound 1; Farage; 72 h
HH = test: as above; format: cell-based; settings: combination with Compound 1
Protocol: The method is described as follows.
Additive effect is CI=1.0. […] Antagonistic effect is CI>1.0.
The Synergy Score is calculated as: […]

SU-DHL-4-epst = test: as above; settings: combination with Compound 1, 72 h
Protocol: as §1, §2, §3, §4, §5, §6, §7

SU-DHL-10-epst = test: as above; settings: combination with Compound 1, 72 h
Protocol: as §1, §2, §3, §4, §5, §6, §7

HBL-1 = test: as above; settings: combination with Compound 1, 72 h
Protocol: as §1, §8, §3, §4, §5, §6, §7

Mino = test: as above; settings: combination with Compound 1
RL = test: as above; settings: combination with Compound 1, 72 h
[2] = as above; settings: combination with Compound 1; OPM-2
OMP-2 = test: as above; settings: combination with Compound 1; OPM-2
KARPAS-299 = test: as above; settings: combination with Compound 1
Protocol: as §1, §8, §3, §4, §5, §6, §9

NCI-H929 = test: as above; settings: combination with Compound 1
OCI-Ly3 = test: as above; settings: combination with Compound 1; OCI-Ly3; 72 h

In the case of `CC1(C)/C(=C2/C(=O)Nc3ccc(S(N)(=O)=O)cc32)Nc2ccccc21` [ZK-304709, (Z)-3,3-dimethyl-2′-oxo-[2,3′-biindolinylidene]-5′-sulfonamide], the “IC50 values, CDK1, CDK2, CDK4, CDK7 and CDK9” value [1] is listed as “nanomolar range”.

For `CC(=O)Nc1cccc(-n2c(=O)n(C3CC3)c(=O)c3c(Nc4ccc(I)cc4F)n(C)c(=O)c(C)c32)c1` [trametinib, N-(3-{3-cyclopropyl-5-[(2-fluoro-4-iodophenyl)amino]-6,8-dimethyl-2,4,7-trioxo-3,4,6,7-tetrahydropyrido[4,3-d]pyrimidin-1(2H)-yl}phenyl)acetamide], the “Synergy Score growth inhibition” value (OCI-Ly7) was “A1 (A1=0.0001 to <1)”, the “Synergy Score inhibition” value (OCI-Ly7) was “A1 (A1=0.0001 to <1)” and the CI50 growth inhibition (TMD8; TMD8, 72 h) was “S (S=0.01 to <0.5)”. For the same molecule, the CI50 inhibition (TMD8; TMD8, 72 h) was “S (S=0.01 to <0.5)”, the “Synergy Score growth inhibition” value (TMD8; TMD8, 72 h) was “A3 (A3=>3)” and the “Synergy Score inhibition” value (TMD8; TMD8, 72 h) was “A3 (A3=>3)”. For the same molecule, the “effect of the combination (isobologram)” value (TMD8; TMD8 DLBCL cell line, FIG. 1-3) was “synergistic effect”, the CI50 growth inhibition (RPMI-8226) was “U (U=0.7 to <1)” and the “Synergy Score growth inhibition” value (RPMI-8226) was “A2 (A2=1 to <3)”. The “Synergy Score inhibition” value (RPMI-8226) was “A1 (A1=0.0001 to <1)”, the CI50 growth inhibition (U-2932) was “U (U=0.7 to <1)” and the “Synergy Score growth inhibition” value (U-2932) was “A1 (A1=0.0001 to <1)”. For the same molecule, the “Synergy Score inhibition” value (U-2932) was “A1 (A1=0.0001 to <1)”, the CI50 growth inhibition (WSU-NHL) was “T (T=0.5 to <0.7)” and the CI50 inhibition (WSU-NHL) was “S (S=0.01 to <0.5)”. For the same molecule, the “Synergy Score growth inhibition” value (WSU-NHL) was “A3 (A3=>3)”, the “Synergy Score inhibition” value (WSU-NHL) was “A3 (A3=>3)” and the CI50 growth inhibition (DOHH-2) was “U (U=0.7 to <1)”. The CI50 inhibition (DOHH-2) was “W (W=≥1)”, the “Synergy Score growth inhibition” value (DOHH-2) was “A3 (A3=>3)” and the “Synergy Score inhibition” value (DOHH-2) was “A2 (A2=1 to <3)”. The CI50 growth inhibition (Jeko-1) was “U (U=0.7 to <1)”, the CI50 inhibition (Jeko-1) was “W (W=≥1)” and the “Synergy Score growth inhibition” value (Jeko-1) was “A1 (A1=0.0001 to <1)”. The “Synergy Score inhibition” value (Jeko-1) was “A1 (A1=0.0001 to <1)”, the CI50 growth inhibition (GRANTA-519) was “S (S=0.01 to <0.5)” and the “Synergy Score growth inhibition” value (GRANTA-519) was “A2 (A2=1 to <3)”. For the same molecule, the “Synergy Score inhibition” value (GRANTA-519) was “A1 (A1=0.0001 to <1)”, the CI50 growth inhibition (KARPAS-422) was “S (S=0.01 to <0.5)” and the CI50 inhibition (KARPAS-422) was “S (S=0.01 to <0.5)”. The “Synergy Score growth inhibition” value (KARPAS-422) was “A2 (A2=1 to <3)”, the “Synergy Score inhibition” value (KARPAS-422) was “A2 (A2=1 to <3)” and the CI50 growth inhibition (Farage) was “W (W=≥1)”. The CI50 inhibition (Farage) was “U (U=0.7 to <1)”, the “Synergy Score growth inhibition” value (Farage) was “A2 (A2=1 to <3)” and the “Synergy Score inhibition” value (Farage) was “A2 (A2=1 to <3)”. The CI50 growth inhibition (HH) was “S (S=0.01 to <0.5)”, the CI50 inhibition (HH) was “S (S=0.01 to <0.5)” and the “Synergy Score growth inhibition” value (HH) was “A3 (A3=>3)”. The “Synergy Score inhibition” value (HH) was “A2 (A2=1 to <3)”, the CI50 growth inhibition (SU-DHL-4-epst) was “S (S=0.01 to <0.5)” and the CI50 inhibition (SU-DHL-4-epst) was “S (S=0.01 to <0.5)”. The “Synergy Score growth inhibition” value (SU-DHL-4-epst) was “A3 (A3=>3)”, the “Synergy Score inhibition” value (SU-DHL-4-epst) was “A2 (A2=1 to <3)” and the CI50 growth inhibition (SU-DHL-10-epst) was “S (S=0.01 to <0.5)”. The CI50 inhibition (SU-DHL-10-epst) was “S (S=0.01 to <0.5)”, the “Synergy Score growth inhibition” value (SU-DHL-10-epst) was “A3 (A3=>3)” and the “Synergy Score inhibition” value (SU-DHL-10-epst) was “A3 (A3=>3)”. For the same molecule, the CI50 growth inhibition (HBL-1) was “U (U=0.7 to <1)”, the “Synergy Score growth inhibition” value (HBL-1) was “A2 (A2=1 to <3)” and the “Synergy Score inhibition” value (HBL-1) was “A1 (A1=0.0001 to <1)”. For the same molecule, the CI50 growth inhibition (Mino) was “S (S=0.01 to <0.5)”, the CI50 inhibition (Mino) was “S (S=0.01 to <0.5)” and the “Synergy Score growth inhibition” value (Mino) was “A3 (A3=>3)”. The “Synergy Score inhibition” value (Mino) was “A3 (A3=>3)”, the “Synergy Score growth inhibition” value (RL) was “A1 (A1=0.0001 to <1)” and the “Synergy Score inhibition” value (RL) was “A1 (A1=0.0001 to <1)”. For the same molecule, the CI50 growth inhibition [2] was “T (T=0.5 to <0.7)”, the CI50 inhibition (OMP-2) was “W (W=≥1)” and the “Synergy Score growth inhibition” value (OMP-2) was “A2 (A2=1 to <3)”. For the same molecule, the “Synergy Score inhibition” value (OMP-2) was “A2 (A2=1 to <3)”, the “Synergy Score growth inhibition” value (KARPAS-299) was “A1 (A1=0.0001 to <1)” and the “Synergy Score inhibition” value (KARPAS-299) was “A1 (A1=0.0001 to <1)”. For the same molecule, the CI50 growth inhibition (NCI-H929) was “T (T=0.5 to <0.7)”, the CI50 inhibition (NCI-H929) was “S (S=0.01 to <0.5)” and the “Synergy Score growth inhibition” value (NCI-H929) was “A3 (A3=>3)”. The “Synergy Score inhibition” value (NCI-H929) was “A2 (A2=1 to <3)”, the CI50 growth inhibition (OCI-Ly3) was “W (W=≥1)” and the “Synergy Score growth inhibition” value (OCI-Ly3) was “A2 (A2=1 to <3)”. For the same molecule, the “Synergy Score inhibition” value (OCI-Ly3) was “A1 (A1=0.0001 to <1)”.
